Results from paper PMC11145868, “Protein target similarity is positive predictor of in vitro antipathogenic activity: a drug repurposing strategy for Plasmodium falciparum” (Journal of Cheminformatics, 2024).
Where two headings read alike, the source gives them in different places.

Experiments:
[1] = system: P. falciparum blood-stage; set-up: method as in PMID 28874661; settings: read-out: EC50 against P. falciparum blood-stage growth in vitro; cited from earlier work
PfPKG = settings: read-out: IC50 in PfPKG kinase assays; cited from earlier work
[2] = system: P. falciparum (NF54 drug-sensitive strain); set-up: method as in PMID 28446690; settings: read-out: EC50 against intraerythrocytic lifecycle stages of P. falciparum; cited from earlier work
in vitro [3] = settings: human
P. falciparum Dd2-HLH [4] = experiment: microbe, parasite or virus in culture; assay type: cell-based, Plasmodium falciparum; settings: Plasmodium falciparum, DD2, 48 h, read-out: Blood stage 48h EC50
in vitro [5] = settings: human; remark: listed apart in the source
[6] = system: P. berghei-luciferase sporozoites; experiment: microbe, parasite or virus in culture; assay type: cell-based, Plasmodium berghei; settings: Plasmodium berghei, HepG2; liver-stage parasites, 48 hours in culture; read-out: Liver stage 48h EC50
P. falciparum Dd2-HLH [7] = experiment: microbe, parasite or virus in culture; assay type: cell-based, Plasmodium falciparum; settings: Plasmodium falciparum, DD2, 72 h, read-out: Blood stage 72h EC50

Question: Which EC50 [1] does the source give for `Cc1cn2c(-c3ccnc(NCC4CC4)n3)c(-c3ccc(F)c(NS(C)(=O)=O)c3)nc2cc1CN(C)C` [ML10] here?
Answer: The EC50 was 2.1 nM.

Question: And the IC50 (PfPKG)?
Answer: The IC50 was 0.16 nM.

Question: With `CS(=O)(=O)c1ccc(-c2cnc(N)c(-c3ccc(C(F)(F)F)nc3)c2)cc1` [MMV390048] as the compound, how does the EC50 [2] read?
Answer: Its EC50 is 28 nM.

Question: Which results are given for `CCN(CCO)CCCOc1ccc2c(Nc3cc(CC(=O)Nc4cccc(F)c4)n[nH]3)ncnc2c1` [Barasertib-HQPA]?
Answer: CC50 (in vitro [3]): > 9990 nM; EC50 (P. falciparum Dd2-HLH [4]): 253 nM; CC50 (in vitro [5]): > 9950 nM; EC50 [6]: 4620 nM; EC50 (P. falciparum Dd2-HLH [7]): 539 nM
